Each structure is given as a SMILES string.

The target of this experiment is T1, TGF-beta receptor type-1 (Homo sapiens, UniProt P36897).
T1 sequence (P36897 whole entry): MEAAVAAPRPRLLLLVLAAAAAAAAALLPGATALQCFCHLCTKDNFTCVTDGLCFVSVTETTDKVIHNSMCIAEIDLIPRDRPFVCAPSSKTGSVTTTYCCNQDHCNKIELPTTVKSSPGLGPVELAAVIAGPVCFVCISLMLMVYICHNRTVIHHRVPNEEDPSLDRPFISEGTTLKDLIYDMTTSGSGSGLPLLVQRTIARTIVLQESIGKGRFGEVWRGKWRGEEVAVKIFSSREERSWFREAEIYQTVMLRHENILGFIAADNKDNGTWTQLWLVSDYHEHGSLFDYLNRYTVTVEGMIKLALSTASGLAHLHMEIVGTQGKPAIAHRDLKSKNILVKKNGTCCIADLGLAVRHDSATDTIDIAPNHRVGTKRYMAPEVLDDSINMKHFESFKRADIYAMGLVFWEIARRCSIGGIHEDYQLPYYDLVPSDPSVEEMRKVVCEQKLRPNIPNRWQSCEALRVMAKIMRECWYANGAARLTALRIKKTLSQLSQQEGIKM
Kind of experiment: ADP-Glo Kinase Assay. On the procedure:
The principle of the activity assay was that TGFβR1 phosphorylates the substrate TGFβR1tide, consuming ATP in the process. […] The specific experimental steps were as follows. Compounds were diluted 4-fold in DMSO in a dilution plate, with the final starting concentration of the compounds being 10 μM, across 10 concentration gradient points. The compounds were then further diluted 50-fold into the kinase reaction buffer and incubated on a shaker for 20 minutes. Kinase was formulated with an enzyme reaction buffer. 2 μl kinase was added to each well of the reaction plate. 1 μl of the compound diluted in buffer was added to each well, and then the plate was sealed with a sealing membrane and centrifuged at 1000 g for 30 seconds, leaving it at room temperature for 10 minutes. Solutions of TGFβR1tide and ATP were prepared with the kinase reaction buffer, and 2 μL of the TGFβR1tide/ATP solution was added to the reaction plate. The plate was sealed with a sealing film and centrifuged at 1000 g for 30 seconds. It was allowed to react at room temperature for 60 minutes. Subsequently, 4 μL of ADP-Glo was transferred to a 384-well reaction plate and centrifuged at 1000 rpm/min for 1 minute, followed by incubation at 25° C. for 40 minutes. […] The RLU (Relative Luminescence Unit) signal was read using a BMG microplate reader, which was used to characterize the degree of kinase activity.
Background: In ADP-Glo the light output rises with the ADP produced.

As to `Cc1cccc(-c2n[nH]cc2-c2ccnc(-c3nc4c([nH]3)CN(C(=O)N3CCN(C)CC3)C4)c2)n1` [US20250215017, Compound 7], the IC50 (usually the concentration that inhibits the measured activity by half) worked out at 1.1 nM.

The values are drawn from BindingDB's records for patent US20250215017 (Medinno Pharmaceutical Technology (Zhuhai) Co., 2025).
